Measured values reported in ChEMBL document CHEMBL1201862, “PubChem BioAssay data set” (2004).
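Test compounds were applied to cells in 96-well plates for 48 hours at 5 doses. GI50 is the concentration that inhibits growth by half.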 Calls of active or inactive are those of the source. Rule as the data show it: active = GI50 up to about 1.1 µM and inactive = higher.

Experiments:
Assay in all cases: NCI anticancer screen, dose series, 48 h
786-0 = tested on: 786-0
A549 = tested on: A549
UACC-257 = tested on: UACC-257
SK-MEL-2 = tested on: SK-MEL-2
HCT-116 = tested on: HCT-116
IGROV-1 = tested on: IGROV-1
CCRF-CEM = tested on: CCRF-CEM
NCI-H460 = tested on: NCI-H460
SN12C = tested on: SN12C
MCF7 = tested on: MCF7
SK-MEL-28 = tested on: SK-MEL-28
RPMI-8226 = tested on: RPMI-8226
MOLT-4 = tested on: MOLT-4
SNB-19 = tested on: SNB-19
SF-268 = tested on: SF-268
NCI-H522 = tested on: NCI-H522
CAKI-1 = tested on: CAKI-1
HT-29 = tested on: HT-29
UACC-62 = tested on: UACC-62
SR = tested on: SR
MDA-N = tested on: MDA-N
EKVX = tested on: EKVX
MDA-MB-231 = tested on: MDA-MB-231
BT-549 = tested on: BT-549
MDA-MB-435 = tested on: MDA-MB-435
K562 = tested on: K562
TK-10 = tested on: TK-10
A498 = tested on: A498
U-251 = tested on: U-251
NCI-H226 = tested on: NCI-H226
M14 = tested on: M14
HOP-92 = tested on: HOP-92
PC-3 = tested on: PC-3
OVCAR-8 = tested on: OVCAR-8
T47D = tested on: T47D
Hs-578T = tested on: Hs-578T
Malme-3M = tested on: Malme-3M
NCI/ADR-RES = tested on: NCI/ADR-RES
SW-620 = tested on: SW-620
OVCAR-5 = tested on: OVCAR-5
HCC 2998 = tested on: HCC 2998
SNB-75 = tested on: SNB-75
RXF 393 = tested on: RXF 393
LOX IMVI = tested on: LOX IMVI
KM12 = tested on: KM12
SF-539 = tested on: SF-539
HL-60 = tested on: HL-60
UO-31 = tested on: UO-31
ACHN = tested on: ACHN
OVCAR-4 = tested on: OVCAR-4
COLO 205 = tested on: COLO 205
HCT-15 = tested on: HCT-15
SK-MEL-5 = tested on: SK-MEL-5
NCI-H23 = tested on: NCI-H23
OVCAR-3 = tested on: OVCAR-3
SF-295 = tested on: SF-295
HOP-62 = tested on: HOP-62
SK-OV-3 = tested on: SK-OV-3

COc1cc(/C=C/C2=NN(c3cccc(S(=O)(=O)O)c3)C3(C2)C(Cl)C(=O)N3c2nc3ccccc3s2)ccc1O (stereo not given)
GI50 (786-0): 17.4 µM (inactive)
GI50 (A549): 31 µM (inactive)
GI50 (UACC-257): 19.9 µM (inactive)
GI50 (SK-MEL-2): 39.7 µM (inactive)
GI50 (HCT-116): 19.5 µM (inactive)
GI50 (IGROV-1): 13.7 µM (inactive)
GI50 (CCRF-CEM): 17.7 µM (inactive)
GI50 (NCI-H460): 32.7 µM (inactive)
GI50 (SN12C): 21.9 µM (inactive)
GI50 (MCF7): 33.1 µM (inactive)
GI50 (SK-MEL-28): 25.1 µM (inactive)
GI50 (RPMI-8226): 16.1 µM (inactive)
GI50 (MOLT-4): 19.2 µM (inactive)
GI50 (SNB-19): 65.9 µM (inactive)
GI50 (SF-268): 23.8 µM (inactive)
GI50 (NCI-H522): 13.9 µM (inactive)
GI50 (CAKI-1): 17 µM (inactive)
GI50 (HT-29): 20.7 µM (inactive)
GI50 (UACC-62): 18.5 µM (inactive)
GI50 (SR): 15.6 µM (inactive)
GI50 (MDA-N): 25.2 µM (inactive)
GI50 (EKVX): 20.3 µM (inactive)
GI50 (MDA-MB-231): 20.8 µM (inactive)
GI50 (BT-549): 14.7 µM (inactive)
GI50 (MDA-MB-435): 17.1 µM (inactive)
GI50 (K562): 20.8 µM (inactive)
GI50 (TK-10): 14.8 µM (inactive)
GI50 (A498): 55.6 µM (inactive)
GI50 (U-251): 18 µM (inactive)
GI50 (NCI-H226): 20.7 µM (inactive)
GI50 (M14): 40.7 µM (inactive)
GI50 (HOP-92): 13.2 µM (inactive)
GI50 (PC-3): 25.6 µM (inactive)
GI50 (OVCAR-8): 18.3 µM (inactive)
GI50 (T47D): 6.47 µM (inactive)
GI50 (Hs-578T): 50 µM (inactive)
GI50 (Malme-3M): 19.7 µM (inactive)
GI50 (NCI/ADR-RES): 27.4 µM (inactive)
GI50 (SW-620): 21.1 µM (inactive)
GI50 (OVCAR-5): 20.2 µM (inactive)
GI50 (HCC 2998): 20.7 µM (inactive)
GI50 (SNB-75): 21.7 µM (inactive)
GI50 (RXF 393): 29.2 µM (inactive)
GI50 (LOX IMVI): 11.4 µM (inactive)
GI50 (KM12): 19.1 µM (inactive)
GI50 (SF-539): 21.4 µM (inactive)
GI50 (HL-60): 21.4 µM (inactive)
GI50 (UO-31): 16.9 µM (inactive)
GI50 (ACHN): 16.7 µM (inactive)
GI50 (OVCAR-4): 16.1 µM (inactive)
GI50 (COLO 205): 18.5 µM (inactive)
GI50 (HCT-15): 16.7 µM
GI50 (SK-MEL-5): 23.6 µM (inactive)
GI50 (NCI-H23): 13 µM (inactive)

CC(C)=CCC/C(C)=C/COc1c2ccoc2cc2oc(=O)ccc12 [BERGAMOTTIN]
GI50 (786-0): 32.4 µM (inactive)
GI50 (A549): 24.9 µM (inactive)
GI50 (UACC-257): 24.7 µM (inactive)
GI50 (SK-MEL-2): 16 µM (inactive)
GI50 (OVCAR-3): 25.4 µM (inactive)
GI50 (HCT-116): 23.8 µM (inactive)
GI50 (IGROV-1): 39.5 µM (inactive)
GI50 (CCRF-CEM): 18 µM (inactive)
GI50 (NCI-H460): 29.9 µM (inactive)
GI50 (SN12C): 38.3 µM (inactive)
GI50 (MCF7): 19.1 µM (inactive)
GI50 (SK-MEL-28): 59.2 µM (inactive)
GI50 (RPMI-8226): 17.1 µM (inactive)
GI50 (MOLT-4): 15.4 µM (inactive)
GI50 (SNB-19): 32.3 µM (inactive)
GI50 (SF-268): 54.1 µM (inactive)
GI50 (NCI-H522): 19 µM (inactive)
GI50 (CAKI-1): 44 µM (inactive)
GI50 (HT-29): 19.7 µM (inactive)
GI50 (UACC-62): 10.7 µM (inactive)
GI50 (SR): 15.2 µM (inactive)
GI50 (MDA-N): 34.7 µM (inactive)
GI50 (SF-295): 25.4 µM (inactive)
GI50 (EKVX): 22.2 µM (inactive)
GI50 (MDA-MB-231): 24.4 µM (inactive)
GI50 (BT-549): 44.3 µM (inactive)
GI50 (MDA-MB-435): 34.6 µM (inactive)
GI50 (K562): 22.4 µM (inactive)
GI50 (TK-10): 42.2 µM (inactive)
GI50 (A498): 23.1 µM (inactive)
GI50 (U-251): 20.6 µM (inactive)
GI50 (NCI-H226): 30.1 µM (inactive)
GI50 (M14): 27.7 µM (inactive)
GI50 (HOP-62): 43.4 µM (inactive)
GI50 (HOP-92): 50.2 µM (inactive)
GI50 (PC-3): 29.9 µM (inactive)
GI50 (OVCAR-8): 43.7 µM (inactive)
GI50 (T47D): 19.3 µM (inactive)
GI50 (Hs-578T): 48.1 µM (inactive)
GI50 (Malme-3M): 33.5 µM (inactive)
GI50 (NCI/ADR-RES): 35 µM (inactive)
GI50 (SW-620): 37.8 µM (inactive)
GI50 (OVCAR-5): 23.8 µM (inactive)
GI50 (HCC 2998): 28.2 µM (inactive)
GI50 (LOX IMVI): 21 µM (inactive)
GI50 (KM12): 32.7 µM (inactive)
GI50 (SF-539): 37.2 µM (inactive)
GI50 (HL-60): 16.4 µM (inactive)
GI50 (UO-31): 21.5 µM (inactive)
GI50 (ACHN): 22.8 µM (inactive)
GI50 (OVCAR-4): 41.4 µM (inactive)
GI50 (COLO 205): 17.5 µM (inactive)
GI50 (SK-OV-3): 27.5 µM (inactive)
GI50 (HCT-15): 30.4 µM
GI50 (SK-MEL-5): 14.9 µM (inactive)
GI50 (NCI-H23): 27.4 µM (inactive)
